Results from ChEMBL document CHEMBL1156230, “Identification of phenylsulfone-substituted quinoxaline (WYE-672) as a tissue selective liver X-receptor (LXR) agonist” (J Med Chem, 2010).
Active and inactive are the calls of the source. No cut-off for these calls is given here.

How the values were obtained:
Mus musculus [1] = assay: Antiatherosclerotic activity against high fat/high cholesterol fed LDLR-deficient mouse assessed as Lipc gene regulation at 0.6 mg/kg administered with diet for 7 days by Experion chip analysis; format: functional, organism-based; set-up: dose 0.6 mg/kg
Mus musculus [2] = assay: Antiatherosclerotic activity against high fat/high cholesterol fed LDLR-deficient mouse assessed as IPl gene regulation at 3 mg/kg administered with diet for 7 days by Experion chip analysis; format: functional, organism-based; set-up: dose 3 mg/kg
[3] = Plasma concentration in high fat/high cholesterol fed LDLR-deficient mouse at 3 mg/kg, qd administered with diet for 8 weeks measured after 3 hrs of last dose; format: ADME, organism-based; set-up: dose 3 mg/kg; conditions: po
[4] = molecular target: T1, Mineralocorticoid receptor (Homo sapiens) (UniProt P08235); assay: Binding affinity to mineralocorticoid receptor
T1 sequence (whole entry): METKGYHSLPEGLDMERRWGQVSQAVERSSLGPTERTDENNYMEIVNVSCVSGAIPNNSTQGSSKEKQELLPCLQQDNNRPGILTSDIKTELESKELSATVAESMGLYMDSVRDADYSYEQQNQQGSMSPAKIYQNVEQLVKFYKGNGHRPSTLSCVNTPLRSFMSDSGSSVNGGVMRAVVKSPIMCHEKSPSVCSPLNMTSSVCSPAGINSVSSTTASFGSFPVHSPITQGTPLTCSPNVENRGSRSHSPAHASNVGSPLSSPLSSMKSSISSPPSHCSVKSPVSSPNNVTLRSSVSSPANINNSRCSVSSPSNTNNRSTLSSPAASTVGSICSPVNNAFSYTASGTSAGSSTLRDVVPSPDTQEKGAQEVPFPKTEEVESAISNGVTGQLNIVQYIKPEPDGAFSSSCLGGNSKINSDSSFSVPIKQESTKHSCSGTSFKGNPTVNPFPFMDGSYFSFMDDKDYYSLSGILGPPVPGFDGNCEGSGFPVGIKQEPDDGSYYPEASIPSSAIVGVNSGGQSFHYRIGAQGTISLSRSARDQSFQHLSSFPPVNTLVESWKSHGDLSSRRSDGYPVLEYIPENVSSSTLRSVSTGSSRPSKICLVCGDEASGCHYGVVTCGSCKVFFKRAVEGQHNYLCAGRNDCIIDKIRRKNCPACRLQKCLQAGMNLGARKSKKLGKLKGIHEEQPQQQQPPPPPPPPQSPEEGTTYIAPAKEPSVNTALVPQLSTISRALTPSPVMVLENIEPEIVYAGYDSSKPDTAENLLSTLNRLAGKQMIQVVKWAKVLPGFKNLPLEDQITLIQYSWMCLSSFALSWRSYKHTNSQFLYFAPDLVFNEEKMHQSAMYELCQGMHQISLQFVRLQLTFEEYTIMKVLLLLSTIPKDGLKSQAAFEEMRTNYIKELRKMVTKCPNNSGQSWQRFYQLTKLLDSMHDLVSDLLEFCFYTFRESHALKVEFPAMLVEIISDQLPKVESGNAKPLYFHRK

THP-1 = assay: cells; conditions: Homo sapiens
[5] = molecular target: Oxysterols receptor LXR-beta (Homo sapiens, UniProt P55055)
Chain of Oxysterols receptor LXR-beta (P55055 whole entry): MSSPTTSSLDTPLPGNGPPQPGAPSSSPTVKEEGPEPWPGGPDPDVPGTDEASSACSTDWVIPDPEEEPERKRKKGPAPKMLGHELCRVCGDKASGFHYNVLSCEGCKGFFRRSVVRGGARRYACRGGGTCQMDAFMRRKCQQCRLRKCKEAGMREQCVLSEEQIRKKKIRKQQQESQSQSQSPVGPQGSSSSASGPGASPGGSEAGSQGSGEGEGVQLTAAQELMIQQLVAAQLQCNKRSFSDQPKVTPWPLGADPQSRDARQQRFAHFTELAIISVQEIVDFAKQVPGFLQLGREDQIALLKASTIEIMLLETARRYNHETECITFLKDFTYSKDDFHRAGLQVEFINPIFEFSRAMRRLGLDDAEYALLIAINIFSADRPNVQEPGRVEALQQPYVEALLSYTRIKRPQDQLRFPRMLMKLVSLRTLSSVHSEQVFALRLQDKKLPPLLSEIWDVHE

[6] = molecular target: T2, Peroxisome proliferator-activated receptor delta (Homo sapiens) (UniProt Q03181); assay: Binding affinity to PPARdelta
T2 sequence (whole entry): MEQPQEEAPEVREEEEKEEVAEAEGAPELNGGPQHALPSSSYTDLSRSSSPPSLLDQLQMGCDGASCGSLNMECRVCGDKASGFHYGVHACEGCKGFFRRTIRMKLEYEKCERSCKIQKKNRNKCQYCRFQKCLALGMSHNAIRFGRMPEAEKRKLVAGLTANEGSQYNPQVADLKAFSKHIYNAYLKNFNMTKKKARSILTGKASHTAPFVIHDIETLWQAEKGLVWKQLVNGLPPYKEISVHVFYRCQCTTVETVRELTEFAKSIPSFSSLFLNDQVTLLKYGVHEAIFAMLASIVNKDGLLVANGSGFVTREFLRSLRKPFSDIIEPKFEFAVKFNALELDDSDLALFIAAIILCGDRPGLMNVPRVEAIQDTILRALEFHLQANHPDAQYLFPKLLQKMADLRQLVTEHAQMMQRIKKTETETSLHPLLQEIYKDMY

concentration at 3 h [3] [ng/mL]	Activity [4]	EC50 (THP-1) [nM]	EC50 [5] [nM]	Activity [6]	Compound	Activity (Mus musculus [1])	Activity (Mus musculus [2])
					O=C(O)Cc1cccc(OCCCN(Cc2cccc(C(F)(F)F)c2Cl)CC(c2ccccc2)c2ccccc2)c1	Active	Active
10800	inactive	1090	> 1000	inactive	Cc1nc2c(C(F)(F)F)cccc2nc1-c1ccc(-c2cccc(S(C)(=O)=O)c2)cc1		
